Data from patent publication US6699880B1 (priority 1999, dated 2004).

Biological target: T1, human m4 receptor (Homo sapiens, UniProt P08173)
T1 construct: expressed in transfected cells
T1 sequence (P08173 1-479): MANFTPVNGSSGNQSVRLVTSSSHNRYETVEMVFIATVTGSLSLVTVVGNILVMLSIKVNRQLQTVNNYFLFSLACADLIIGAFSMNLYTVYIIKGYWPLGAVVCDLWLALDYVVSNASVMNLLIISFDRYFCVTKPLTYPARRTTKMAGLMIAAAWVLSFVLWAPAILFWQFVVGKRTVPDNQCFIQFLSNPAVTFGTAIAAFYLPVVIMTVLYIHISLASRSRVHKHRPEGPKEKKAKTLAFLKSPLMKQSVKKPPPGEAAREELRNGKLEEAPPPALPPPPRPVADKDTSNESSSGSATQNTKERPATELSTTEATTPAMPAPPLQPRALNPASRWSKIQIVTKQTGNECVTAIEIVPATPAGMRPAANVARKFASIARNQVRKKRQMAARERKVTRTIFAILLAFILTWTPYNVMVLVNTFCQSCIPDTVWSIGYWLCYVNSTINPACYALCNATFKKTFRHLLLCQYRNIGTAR
Type: cell-based
Conditions: 0.01 µM

Row | Structure (SMILES) | Agonist Activity (%) (M4 Receptors-Stimulating Activity)
1 | C=CCn1c(=O)n(C2CCN(C3CCN(C(=O)OC)CC3)CC2)c2ccccc21 [Example 2, 1-[1-(1-methoxycarbonylpiperidin-4-yl)-piperidin-4-yl]-3-(2-propenyl)-1,3-dihydro-2H-benzimidazol-2-one] | 96
2 | CCOC(=O)N1CCC(N2CCC(n3c(=O)n(S(C)(=O)=O)c4ccccc43)CC2)CC1 [Example 20, 1-[1-(1-ethoxycarbonylpiperidin-4-yl)-piperidin-4-yl]-3-(methylsulfonyl)-1,3-dihydro-2H-benzimidazol-2-one] | 94
3 | COC(=O)N1CCC(N2CCC(n3c(=O)n(C)c4ccccc43)CC2)CC1 [Example 4, 1-[1-(1-methoxycarbonylpiperidin-4-yl)-piperidin-4-yl]-3-methyl-1,3-dihydro-2H-benzimidazol-2-one] | 96
4 | COC(=O)N1CCC(N2CCC(n3c(=O)n(CC(F)(F)F)c4ccccc43)CC2)CC1 [Example 5, 1-[1-(1-methoxycarbonylpiperidin-4-yl)-piperidin-4-yl]-3-(2,2,2-trifluoroethyl)-1,3-dihydro-2H-benzimidazol-2-one] | 90
5 | COC(=O)Cn1c(=O)n(C2CCN(C3CCN(C(=O)OC)CC3)CC2)c2ccccc21 [Example 6, 1-[1-(1-methoxycarbonylpiperidin-4-yl)-piperidin-4-yl]-3-(methoxycarbonylmethyl)-1,3-dihydro-2H-benzimidazol-2-one] | 92
6 | COC(=O)N1CCC(N2CCC(n3c(=O)n(CCN)c4ccccc43)CC2)CC1 [Example 8, 1-[1-(1-methoxycarbonylpiperidin-4-yl)-piperidin-4-yl]-3-(2-aminoethyl)-1,3-dihydro-2H-benzimidazol-2-one] | 95
7 | C#CCn1c(=O)n(C2CCN(C3CCN(C(=O)OC)CC3)CC2)c2ccccc21 [Example 1, 1-[1-(1-methoxycarbonylpiperidin-4-yl)-piperidin-4-yl]-3-(2-propinyl)-1,3-dihydro-2H-benzimidazol-2-one] | 91
8 | COC(=O)N1CCC(N2CCC(n3c(=O)n(C(C)=O)c4ccccc43)CC2)CC1 [Example 12, 1-[1-(1-methoxycarbonylpiperidin-4-yl)-piperidin-4-yl]-3-acetyl-1,3-dihydro-2H-benzimidazol-2-one] | 95
9 | COC(=O)N1CCC(N2CCC(n3c(=O)n(CC(C)=O)c4ccccc43)CC2)CC1 [Example 7, 1-[1-(1-methoxycarbonylpiperidin-4-yl)-piperidin-4-yl]-3-(2-oxopropyl)-1,3-dihydro-2H-benzimidazol-2-one] | 97
10 | CCCCn1c(=O)n(C2CCN(C3CCN(C(=O)OC)CC3)CC2)c2ccccc21 [Example 3, 1-[1-(1-methoxycarbonylpiperidin-4-yl)-piperidin-4-yl]-3-n-butyl-1,3-dihydro-2H-benzimidazol-2-one] | 101
